Data: patent US20250042918A1, “COMPOUNDS” (Fundación Del Sector Públlco Estatal Centro Nacional De …, priority 2021, published 2025)

Legend:
PIM-1 = target: T1, PIM-1 (Homo sapiens, UniProt P11309); test: Protein PIM kinase assay (ADP Hunter Plus); format: biochemical; settings: 100 μM ATP, 100 μM PIMtide
T1 construct: made in house
Protocol: (§1) PIM kinase activities were measured by using the commercial ADP Hunter™ Plus assay (DiscoveRx Ref. #33-016), a homogeneous assay measuring ADP accumulation, as a universal product of kinase activity. PIM-1 and PIM-2 proteins were obtained by purification as it is described by Martinez-Gonzalez et. al. Eur. J. Med Chem. 2019, 168, 87-109 and PIM-3 was acquired from Millipore (Cat #14-738). The assay was done following general manufacturer recommendations and adapting protein and substrates concentrations to optimal conditions. Kinase buffer was 15 mM HEPES, pH 7.4, 20 mM NaCl, 1 mM EGTA, 0.02% Tween-20, 10 mM MgCl2 and 0.1 mg/mL LBGG (bovine y-globulin). All PIM kinases assays were done at 100 μM PIM tide (ARKRRRHPSGPPTA), as peptide substrate, and 100 μM ATP. Protein concentration was 50, 350 and 200 pg/μl for PIM-1, 2 and 3, respectively. In order to calculate the IC50 of described compounds, serial 1:3 dilutions were prepared and the reaction started by addition of ATP. Incubation was done for 1 h at 25° C. Reagents A and B (DiscoveRx) were sequentially added to the wells and plates were incubated for 30 min at 37° C. Fluorescence counts were read in a Victor instrument (Perkin Elmer) with the recommended settings (544 and 580 nm as excitation and emission wavelengths, respectively). Values were plot against inhibitor concentration and fit to a sigmoid dose-response curve using Activity Base software from IDBS.

PIM-2 = target: T2, PIM-2 (Homo sapiens, UniProt Q9P1W9); test: Protein PIM kinase assay (ADP Hunter Plus); format: biochemical; settings: 100 μM ATP, 100 μM PIMtide
T2 construct: made in house
T2 sequence (Q9P1W9 whole entry): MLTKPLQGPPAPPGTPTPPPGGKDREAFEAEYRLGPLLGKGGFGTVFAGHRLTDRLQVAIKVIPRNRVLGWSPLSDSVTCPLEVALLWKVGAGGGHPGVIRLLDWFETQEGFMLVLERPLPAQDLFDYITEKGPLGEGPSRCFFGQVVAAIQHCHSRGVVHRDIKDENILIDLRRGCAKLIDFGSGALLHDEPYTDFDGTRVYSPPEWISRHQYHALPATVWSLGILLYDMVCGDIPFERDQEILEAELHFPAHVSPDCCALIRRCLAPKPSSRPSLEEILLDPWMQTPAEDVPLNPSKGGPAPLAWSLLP
Protocol: as §1

PIM-3 = target: T3, PIM-3 (Homo sapiens, UniProt Q86V86); test: Protein PIM kinase assay (ADP Hunter Plus); format: biochemical; settings: 100 μM ATP, 100 μM PIMtide
T3 construct: purchased Millipore 14-738
Protocol: as §1

[1] = test system: Naïve CD4+ T cells, Th17 cells; test: CD4+ T cell differentiation under Th17 conditions (IL-17A, ELISA and FACS); format: cell-based, mice
Protocol: Naïve CD4^+ T cells were purified from mice spleens and lymph nodes using positive selection by magnetic beads (CD4 L3T4 Kit, Miltenyi Biotec, UK). The purified T cells were activated by plate-bound αCD3ε (1 μg/ml; 2C11) and αCD28 (3 μg/ml; 37.51) in the presence or absence of the compound of Example 1 or Cyclosporin A (Sigma Aldrich), and cultured for 72 hrs under Th1 conditions (IL-12 [20 ng/ml]+αIL-4 (11B1) [10 μg/ml]), 72 hrs under Th17 conditions (αIFNγ [10 μg/ml]+αIL-4 [5 μg/ml]+IL-6 [[…]]+TGFβ(5 ng/ml)), and 96 hrs under iTreg conditions (TGFβ (5 ng/ml)) at 37° C.
ELISA kits for mouse IFNγ and IL-17a were purchased from eBioscience (Thermo Fisher, UK) and performed in accordance to manufacturer's instructions using Corning® High Binding ELISA plates (Merck, CLS9018). All ELISAs were analysed using a Synergy MX microplate reader (BioTek).
Intracellular protein expression was evaluated by first restimulating the cells with phorbol-12-myristate 13-acetate (PMA)(10 ng/ml) (Sigma Aldrich), ionomycin (1 μg/ml) (Sigma Aldrich) and Brefeldin A (5 μg/ml) (eBioscience) for 4-6 hours at 37° C. […] Fc block (93) and all fluorescence dye labelled antibodies used αCD4 (GK1.5), αIFNγ (XMG1.2), αIL-17a (17B7), αFOXP3 (NRRF-30; FJK-16S) were purchased from eBiosciences (Thermo Fisher, UK). […]

HL-60 = test: In vitro potency against leukemia cell lines (CellTiter Glo); format: cell-based; settings: Homo sapiens, 72 hours, read-out: absolute IC50 HL-60
Protocol: (§2) To prepare the complete medium FBS and appropriate additives were added according to the information sheet provided by the vendor and mixed gently. The cell name and complete medium and passage number marked on the flask were checked, and the culture medium removed and discarded using a vacuum pump. […] 3.0 ml of Trypsin-EDTA solution was added to the flask and the cells observed under an inverted microscope until cell layer is dispersed. 8.0 ml of complete growth medium was added and the cells aspirated by gently pipetting. The cell suspension was transferred to a centrifuge tube and centrifuged at 800-1000 rpm for 3-5 minutes. The supernatant was discarded using a vacuum pump, and an appropriate volume of complete medium added. The cell pellet was suspended by gently pipetting, and the cell numbers counted with Vi-cell XR and the cells adjusted to appropriate density. 100 μL of cell suspension to 96-well opaque-walled clear bottom plates was added according to the planned plate layout and the plates placed in the CO2 incubator overnight.
(§3) c. […] Meanwhile the day 0 plate was measured by Cell TiterGlo as listed below.
(§4) d. Cells were incubated with the compounds for 72 h at 5% CO2, 37° C.
(§5) The plate and its contents were equilibrated to room temperature for approximately 30 minutes, after which 100 μL of CellTiter-Glo reagent was added to the assay plate by Multidrop Combi instrument and the contents mixed for 10 minutes on an orbital shaker to induce cell lysis. The plate was allowed to incubate at room temperature for 10 minutes to stabilize luminescent signal and the clear bottom pasted with white back seal and the luminescence recorded with Enspire with the settings: Luminescence, measurement time 0.1 ms.
(§6) In all cases, the incubation time was 72 hours and the cell lines were grown as a suspension. The seeding density was […] in a 96 well plate.

Jeko-1 = test: as above; format: cell-based; settings: Homo sapiens, 72 hours, read-out: absolute IC50 JeKo-1
Protocol: as §2, §3, §4, §5, §6

KG-1 = test: as above; format: cell-based; settings: Homo sapiens, 72 hours, read-out: absolute IC50 KG-1
Protocol: as §2, §3, §4, §5, §6

Kasumi-3 = test: as above; format: cell-based; settings: 72 hours, read-out: absolute IC50 Kasumi-3
Protocol: as §2, §3, §4, §5, §6

MV-4-11 = test: as above; format: cell-based; settings: Homo sapiens, MV4-11; 72 hours; read-out: absolute IC50 MV-4-11
Protocol: as §2, §3, §4, §5, §6

Molm-13 = test: as above; format: cell-based; settings: Homo sapiens, 72 hours, read-out: absolute IC50 Molm-13
Protocol: as §2, §3, §4, §5, §6

OCI-M1 = test: as above; format: cell-based; settings: 72 hours, read-out: absolute IC50 OCI-M1
Protocol: as §2, §3, §4, §5, §6

T1 sequence (P11309 whole entry): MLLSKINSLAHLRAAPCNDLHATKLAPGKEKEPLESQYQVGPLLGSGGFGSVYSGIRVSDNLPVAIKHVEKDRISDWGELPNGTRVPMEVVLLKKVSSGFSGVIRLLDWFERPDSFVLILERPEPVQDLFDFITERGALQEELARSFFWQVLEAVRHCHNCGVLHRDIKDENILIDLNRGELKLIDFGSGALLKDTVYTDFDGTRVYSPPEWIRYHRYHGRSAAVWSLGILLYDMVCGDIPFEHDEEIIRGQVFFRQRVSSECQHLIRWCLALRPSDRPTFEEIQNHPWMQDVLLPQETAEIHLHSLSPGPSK

IC50 (PIM-1): 1 to 5 nM
IC50 (PIM-2): 5 to 10 nM
IC50 (PIM-3): 5 to 10 nM
IC50 (HL-60): 8.75 µM
IC50 (Jeko-1): 6.54 µM
IC50 (KG-1): 715 nM
IC50 (Kasumi-3): 232 nM
IC50 (MV-4-11): 907 nM
IC50 (Molm-13): 9.34 µM
IC50 (OCI-M1): > 10 µM
SMILES: CN1CCOc2c1c(N[C@H]1CC[C@@](C)(O)CC1)nn1c(-c3cccc(OC(F)(F)F)c3)nnc21 [Example 1, 1-Methyl-4-[6-methyl-3-(3-trifluoromethoxy-phenyl)-7,8-dihydro-6H-9-oxa-1,2,3a,4,6-pentaaza-cyclopenta[a]naphthalen-5-ylamino]-cyclohexanol]
pro-inflammatory Th17 responses ([1]; 12.5 nM, 72 hrs Th17 conditions): significant suppression
Differentiation of Th17 cells in vitro as determined by the secretion of IL-17A ([1]; at a range of concentrations, ELISA and FACS): inhibited
